In patent US12596108B2, “Automated lipid exchange-mass spectrometry systems and methods” (ARIZONA BOARD OF REGENTS ON BEHALF OF THE UNIVERSITY OF …, priority 2020, dated 2026):

Target: T1, AmtB, an E. coli ammonia channel (Escherichia coli, UniProt P69681)
T1 construct: HIS (polyhistidine) (N, cleaved yes); MBP (N, cleaved yes); TEV site (N, cleaved yes); made in house; host or cells: E. coli
Assay: Lipid exchange-mass spectrometry (LX-MS) between AmtB nanodiscs and tagged empty nanodiscs
Assay type: binding
Details: for optimal ratio for AmtB POPC/POPG (isolipid point) / lipid preference of AmtB (in words): LX-MS; for lipid preference of AmtB (in words) / isolipid point (mole fraction where Xp−Xt=0): POPC/POPG nanodiscs; for isolipid point (mole fraction where Xp−Xt=0): exchange at room temperature (21-23° C.) over 2.8 days, sigmoidal fit of Xt versus Xp−Xt
Experimental: AmtB, an E. coli ammonia channel, was incorporated into untagged nanodiscs with 50/50 1-palmitoyl-2-oleoyl-sn-glycero-3-phosphocholine (POPC)/1-palmitoyl-2-oleoyl-sn-glycero-3-phospho-(1′-racglycerol) (POPG). Polyhistidine-tagged empty nanodiscs without AmtB were also prepared at various POPC/POPG ratios ranging from 0 to 100% POPC. In one embodiment, the ratios were 0%, 20%, 40%, 50%, 60%, 80%, and 100% POPC Tagged empty nanodiscs were mixed with untagged AmtB nanodiscs, and the mixture was allowed to exchange at room temperature (21-23° C.) over 2.8 days. After exchange, internal standards containing PC and PG lipids with different tail lengths were added, and the total lipid mole fraction of POPC, Xt, was measured (tagged and untagged) by direct infusion MS. Then, the tagged empty nanodiscs were removed by passing the mixture over immobilized metal affinity chromatography (IMAC) beads, and the untagged AmtB nanodiscs were measured alone to determine the lipid mole fraction in the membrane protein nanodiscs, Xp. Preliminary experiments confirmed that the exchange was within experimental error (typically 2-4% absolute mole fraction) by 2.8 days, but a full examination of kinetics was not performed due to limited amounts of sample.
At high total POPC, AmtB shifted the equilibrium to acquire more POPG in the AmtB nanodiscs. Conversely, at low POPC levels, AmtB shifted the equilibrium to enrich the AmtB nanodiscs in POPC.
After establishing that AmtB remodels the local membrane environment, Xt versus Xp−Xt was fit to a sigmoidal curve and the x-intercept where Xp−Xt=0 was determined. At this mole fraction, which is termed the isolipid point, the lipid composition of the membrane protein nanodiscs is the same as the empty nanodiscs. The composition of the annular lipids matches the bulk lipid bilayer at the isolipid point.
The 50% POPC AmtB nanodiscs were mixed with empty nanodiscs assembled with the polyhistidine tagged MSP1E3D1 in POPC/(POPC+POPG) mole fractions of 0, 20, 40, 60, 80, or 100% at a 1:1 molar ratio and a final concentration of 2.3 μM AmtB nanodiscs. To extend the titration to a lower total POPC mole fraction (Xt), the AmtB nanodiscs were mixed with 0% POPC empty nanodiscs at a 1:2.6 molar ratio while keeping the AmtB nanodiscs at 2.3 μM. The mixtures were incubated at room temperature (21-23° C.) for 2.8 days to allow the lipid exchange to reach equilibrium. […] Control experiments were also performed using 50% POPC untagged empty nanodiscs mixed with empty nanodiscs assembled with the polyhistidine-tagged MSP1E3D1 in POPC/(POPC+POPG) mole fractions of 0, 20, 40, 60, 80, or 100% at a 1:1 molar ratio and a final concentration of 2.3 μM MSP as well as at a 1:2.6 molar ratio with 0% nanodiscs.
After exchanging, tagged empty nanodiscs and untagged (either empty or AmtB) nanodiscs were separated by IMAC using a Ni-NTA His SpinTrap (GE Healthcare). Because small exchange volumes of roughly 16 μL were used, around ⅓ of the 100 μL column volume was removed for a final column volume around 66 μL. The SpinTrap was prepared by three washes of 450 μL loading buffer (20 mM imidazole, 0.2 M ammonium acetate, pH 7.6) to equilibrate the column. Prior to addition to the beads, the imidazole concentration of the exchange mixture was adjusted to 20 mM by adding a 1 M imidazole solution (pH 7.6 adjusted with acetic acid) to limit the non-specific binding of the untagged nanodiscs. Then, the exchange reaction mixture was added to the IMAC beads and allowed to incubate for 1-2 minutes at 4° C. The flow-through was removed by centrifugation at 100 g for 45 seconds, and extra loading buffer of 20 μL was added to the column and washed under the same centrifugation procedures. […] Thus, the first wash was collected for MS analysis to maximize the lipid concentration. Around 20 μL was typically recovered. After separation, the His SpinTrap was cleaned with three washes of 450 μL elution buffer (400 mM imidazole, 0.2 M ammonium acetate, pH 7.8). […]

T1 sequence (P69681 23-428): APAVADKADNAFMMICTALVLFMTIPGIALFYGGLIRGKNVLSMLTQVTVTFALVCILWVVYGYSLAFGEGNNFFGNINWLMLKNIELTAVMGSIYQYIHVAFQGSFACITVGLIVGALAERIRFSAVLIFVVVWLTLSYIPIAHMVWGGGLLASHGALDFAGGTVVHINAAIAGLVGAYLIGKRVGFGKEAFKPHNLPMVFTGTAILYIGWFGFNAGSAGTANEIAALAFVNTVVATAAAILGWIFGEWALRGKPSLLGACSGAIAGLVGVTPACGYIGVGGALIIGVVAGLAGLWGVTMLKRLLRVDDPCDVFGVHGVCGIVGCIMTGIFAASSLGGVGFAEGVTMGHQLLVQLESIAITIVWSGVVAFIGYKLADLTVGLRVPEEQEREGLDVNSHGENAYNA

SMILES | optimal ratio for AmtB POPC/POPG (isolipid point) | lipid preference of AmtB (in words) | isolipid point (mole fraction where Xp−Xt=0)
CCCCCCCC/C=C\CCCCCCCC(=O)O[C@H](COC(=O)CCCCCCCCCCCCCCC)COP(=O)([O-])OCC[N+](C)(C)C [POPC, 1-palmitoyl-2-oleoyl-sn-glycero-3-phosphocholine] | 24 | some affinity for POPC | 24±2%
CCCCCCCC/C=C\CCCCCCCC(=O)O[C@H](COC(=O)CCCCCCCCCCCCCCC)COP(=O)(O)OCC(O)CO (mixture of isomers) [POPG, 1-palmitoyl-2-oleoyl-sn-glycero-3-phospho-(1′-racglycerol)] | 76 | clear preference for POPG | 76±2%
